Target: T1, αγ heterodimer of human NAD-IDH (IDH3) (Homo sapiens, UniProt P50213+P51553)
T1 construct: gene IDH3A; alpha and gamma co-expressed in E. coli BL21(DE3) from pQlinkN; gamma C-terminal TEV-His6, His6 cleaved by TEV; 80 kDa heterodimer (dimer of heterodimers at high concentration)
T1 sequence (P50213 28-366): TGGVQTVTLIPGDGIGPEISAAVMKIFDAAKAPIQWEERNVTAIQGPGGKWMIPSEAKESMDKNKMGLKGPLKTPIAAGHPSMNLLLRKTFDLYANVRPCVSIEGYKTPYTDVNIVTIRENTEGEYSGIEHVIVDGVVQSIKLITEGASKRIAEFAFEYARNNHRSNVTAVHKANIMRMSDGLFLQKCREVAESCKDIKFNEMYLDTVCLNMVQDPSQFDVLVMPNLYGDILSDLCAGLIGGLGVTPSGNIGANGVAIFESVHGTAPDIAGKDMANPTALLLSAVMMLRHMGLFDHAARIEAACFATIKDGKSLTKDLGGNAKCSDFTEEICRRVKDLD
T1 sequence (P51553 40-393): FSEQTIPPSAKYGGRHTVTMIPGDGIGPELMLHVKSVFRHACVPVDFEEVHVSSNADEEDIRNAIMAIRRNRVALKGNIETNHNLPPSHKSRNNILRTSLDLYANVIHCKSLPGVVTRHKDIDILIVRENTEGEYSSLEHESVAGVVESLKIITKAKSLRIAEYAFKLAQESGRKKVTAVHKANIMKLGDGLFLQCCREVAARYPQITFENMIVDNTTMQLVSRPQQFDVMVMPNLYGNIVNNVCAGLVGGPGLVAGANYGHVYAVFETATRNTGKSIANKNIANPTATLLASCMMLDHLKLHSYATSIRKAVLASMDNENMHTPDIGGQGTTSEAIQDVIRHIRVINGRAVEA
Experiment: crystal structure, […] Å
Type: binding
Conditions: allosteric citrate subsite in gamma subunit (second site), with Mg2+ and ADP; pH 7.5

O=C(O)C[C@H](C(=O)O)[C@@H](O)C(=O)O [ICT]
crystal structure, 2.8 Å: In this structure, ICT binds to the CIT-binding subsite with a similar orientation as CIT
